Among the data in patent US12077503B2, “Substituted cyclic amides and their use as herbicides” (FMC CORPORATION, priority 2015, dated 2024) are pest or weed control and plant injury values, retold here.

Common to all, as to format: in vivo
Assay [1] has as its system giant foxtail (Setaria faberii). As to the kind of experiment: Test A preemergence. As to conditions: Setaria faberi, pre-emergence, 240 h; for pest or weed control at 125 g/ha: 125 g ai/ha, preemergence, 0 to 100 scale where 0 is no effect and 100 is complete control, read-out: Foxtail, Giant plant response rating; for pest or weed control at 500 g/ha: 500 g ai/ha, Preemergence, visual injury vs untreated controls after approximately 10 d, read-out: Foxtail, Giant plant response rating (0 to 100 scale where 0 is no effect and 100 is complete control). An outline of the steps: (§1)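 In a loam soil and sand blend, planted seeds got a preemergence directed soil spray, and young plants at the one- to two-leaf stage, 2–10 cm high, got a postemergence application; ~10 d greenhouse hold; injury rated visually, 0 = none, 100 = complete control.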

Another assay deals with rice (Oryra sativa). Briefly: Test B flooded paddy test. The following applies: Oryza sativa, Flood, 250 g ai/ha; scale of 0 to 100 where 0 is no effect and 100 is complete control; read-out: Rice plant response rating. An outline of the steps:
(§2)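 Plants at 2-leaf stage flooded to 3 cm above soil, with compounds applied directly to paddy water and that depth maintained. Plants kept in greenhouse 13–15 d. Visual rating versus controls on a 0 (no effect) to 100 (complete control) scale.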

In assay [2] the test system is ducksalad (Heteranthera limosa). As to the kind of experiment: Test B flooded paddy test. The following applies: Heteranthera limosa, Flood, 250 g ai/ha; scale of 0 to 100 where 0 is no effect and 100 is complete control; read-out: Ducksalad plant response rating. In short, it runs like this:
as §2

The test system of assay [3] is barnyardgrass (Echinochloa crus-galli). Briefly: Test B flooded paddy test. The following applies: Echinochloa crus-galli, Flood, 250 g ai/ha; scale of 0 to 100 where 0 is no effect and 100 is complete control; read-out: Barnyardgrass plant response rating. In short, it runs like this: as §2
Assay [4] has as its system sedge, umbrella (small-flower umbrella sedge, Cyperus difformis). As to the kind of experiment: Test B flooded paddy test. The following applies: Cyperus difformis, Flood, 250 g ai/ha; scale of 0 to 100 where 0 is no effect and 100 is complete control; read-out: Sedge, Umbrella plant response rating. An outline of the steps:
as §2

The test system of the next assay is corn (Zea mays). Briefly: Test A postemergence. As to conditions: Zea mays, post-emergence, 240 h, 125 g ai/ha, postemergence, visual injury rating after approximately 10 d; read-out: Corn plant response rating (0 to 100 scale, 0 no effect, 100 complete control). An outline of the steps:
as §1

In assay [5] the test system is Galium (catchweed bedstraw, Galium aparine). Briefly: Test A postemergence. As to conditions: Galium, post-emergence, 240 h, 125 g ai/ha, postemergence, visual injury rating after approximately 10 d; read-out: Galium plant response rating (0 to 100 scale, 0 no effect, 100 complete control). In short, it runs like this:
as §1

In assay [6] the test system is blackgrass (Alopecurus myosuroides). Briefly: Test A postemergence. As to conditions: Alopecurus myosuroides, post-emergence, 240 h, 125 g ai/ha, postemergence, visual injury rating after approximately 10 d; read-out: Blackgrass plant response rating (0 to 100 scale, 0 no effect, 100 complete control). An outline of the steps: as §1
For a further assay, the system named is Kochia (Kochia scoparia). Briefly: Test A postemergence. As to conditions: Bassia scoparia, post-emergence, 240 h, 125 g ai/ha, postemergence, visual injury rating after approximately 10 d; read-out: Kochia plant response rating (0 to 100 scale, 0 no effect, 100 complete control). An outline of the steps: as §1
For assay [7], the system named is barnyardgrass (Echinochloa crus-galli). Briefly: Test A postemergence. As to conditions: Echinochloa crus-galli, post-emergence, 240 h, 125 g ai/ha, postemergence, visual injury rating after approximately 10 d; read-out: Barnyardgrass plant response rating (0 to 100 scale, 0 no effect, 100 complete control). In short, it runs like this:
as §1

For assay [8], the system named is ryegrass, Italian (Italian ryegrass, Lolium multiflorum). Briefly: Test A postemergence. The following applies: Lolium multiflorum, post-emergence, 240 h, 125 g ai/ha, postemergence, visual injury rating after approximately 10 d; read-out: Ryegrass, Italian plant response rating (0 to 100 scale, 0 no effect, 100 complete control). In short, it runs like this: as §1

For assay [9], the system named is pigweed (Amaranthus retroflexus). Briefly: Test A postemergence. As to conditions: Amaranthus retroflexus, post-emergence, 240 h, 125 g ai/ha, postemergence, visual injury rating after approximately 10 d; read-out: Pigweed plant response rating (0 to 100 scale, 0 no effect, 100 complete control). An outline of the steps:
as §1

For assay [10], the system named is ragweed (common ragweed, Ambrosia elatior). As to the kind of experiment: Test A postemergence. The following applies: Ambrosia artemisiifolia, post-emergence, 240 h, 125 g ai/ha, postemergence, visual injury rating after approximately 10 d; read-out: Ragweed plant response rating (0 to 100 scale, 0 no effect, 100 complete control). In short, it runs like this: as §1

The subject of assay [11] is giant foxtail (Setaria faberii). As to the kind of experiment: Test A postemergence. The following applies: Setaria faberi, post-emergence, 240 h, 125 g ai/ha, postemergence, visual injury rating after approximately 10 d; read-out: Foxtail, Giant plant response rating (0 to 100 scale, 0 no effect, 100 complete control). An outline of the steps: as §1
Assay [12] relates to wheat (Triticum aestivum). As to the kind of experiment: Test A postemergence. The following applies: Triticum aestivum, post-emergence, 240 h, 125 g ai/ha, postemergence, visual injury rating after approximately 10 d; read-out: Wheat plant response rating (0 to 100 scale, 0 no effect, 100 complete control). An outline of the steps:
as §1

Turning to `Cc1cc(F)cc([C@H]2CN(C)C(=O)[C@@H]2C(=O)Nc2ccccc2F)c1` [Compound 850], the pest or weed control at 125 g/ha in assay [1] was determined as 90%; in assay [5] it was 30%; in assay [6], 0%; with Kochia (Kochia scoparia) it was 0%; in assay [7], 90%; in assay [8], 0%. Also, the pest or weed control at 125 g/ha turned out to be 0% in [9], 0% in assay [10] and 80% in [11]. The pest or weed control at 500 g/ha in assay [1] stood at 90%. For the same compound, the pest or weed control at 250 g/ha with rice (Oryra sativa) was 0%; in assay [2], 90%; in [3], 70%; in [4], 0%. For the same compound, the plant injury at 125 g/ha in the assay with corn (Zea mays) is 30%; in assay [12], 20%.

Consider `CCOc1ccc([C@H]2CN(C)C(=O)[C@@H]2C(=O)Nc2ccc(F)cc2F)cc1` [Compound 905], for which the pest or weed control at 125 g/ha is 90% in [1]; 0% in [5]; 0% in [6]; 0% in the assay on Kochia (Kochia scoparia); 70% in assay [7]; 0% in assay [8]. The values for the pest or weed control at 125 g/ha in assay [9], in assay [10] and in assay [11] were 0%, 0% and 60%, respectively. Also, the pest or weed control at 500 g/ha in assay [1] was 90%. The pest or weed control at 250 g/ha (in the assay with rice (Oryra sativa); in [2]; in assay [3]; in [4]) was 0% in each case. In addition, the plant injury at 125 g/ha (in the assay on corn (Zea mays); in [12]) was 0% each time.

`CN1CC(c2cccc(I)c2)C(C(=O)Nc2ccccc2F)C1=O` (centres unmarked) [Compound 846]: the pest or weed control at 125 g/ha in assay [1] worked out at 90%; in assay [5] it was 0%; in assay [6] it was 50%; in the assay on Kochia (Kochia scoparia), 40%; in assay [7], 90%; in assay [8], 70%. Also, the pest or weed control at 125 g/ha in [9] is 0%; in assay [10], 0%; in assay [11], 90%. Further, the pest or weed control at 500 g/ha in assay [1] was 90%. In addition, the pest or weed control at 250 g/ha with rice (Oryra sativa) is 0%; in assay [2] it was 60%; in assay [3] it was 60%; in [4], 0%. Moreover, the values for the plant injury at 125 g/ha (with corn (Zea mays); in [12]) were 60% and 0%, respectively.

Turning to `CN1C[C@H](c2cccc(C3CC3)c2)[C@@H](C(=O)Nc2ccccc2S(C)(=O)=O)C1=O` [Compound 817], the pest or weed control at 125 g/ha in [1] stood at 90%; in [5] it was 40%; in assay [6], 40%; in the assay on Kochia (Kochia scoparia), 0%; in assay [7], 90%; in assay [8] it was 30%. Also, the pest or weed control at 125 g/ha stood at 0% in [9], 0% in assay [10] and 90% in assay [11]. Moreover, the pest or weed control at 500 g/ha in assay [1] is 90%. In addition, the pest or weed control at 250 g/ha was found to be 0% in the assay on rice (Oryra sativa), 90% in assay [2], 60% in assay [3] and 0% in assay [4]. The plant injury at 125 g/ha (in the assay with corn (Zea mays); in assay [12]) was 50% throughout.

As for `COc1ccc([C@H]2CN(C)C(=O)[C@@H]2C(=O)Nc2ccccc2SC)cc1OC` [Compound 854], the pest or weed control at 125 g/ha amounted to 50% in assay [1]; 0% in [5]; 0% in [6]; 0% in the assay on Kochia (Kochia scoparia); 0% in assay [7]; 0% in assay [8]. Also, the results for the pest or weed control at 125 g/ha in assay [9], in [10] and in [11] were 0%, 0% and 50%, respectively. Further, in [1], the pest or weed control at 500 g/ha is 80%. The pest or weed control at 250 g/ha (with rice (Oryra sativa); in assay [2]; in assay [3]; in assay [4]) was 0% throughout. The plant injury at 125 g/ha (in the assay with corn (Zea mays); in assay [12]) was 0% each time.
